Test results published in ChEMBL document CHEMBL1201862, “PubChem BioAssay data set” (2004).
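Each compound was tested at five concentrations against cells in 96-well plates for 48 hours. At the GI50, growth is halved.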 Activity calls are given as the source filed them. Cut-off read from the data, not from the text of the source: active = GI50 up to about 1.1 µM and inactive = higher.

What was measured:
Assay in all cases: DTP human tumour cell line panel, 48 h
SF-295 = tested on: SF-295
NCI-H23 = tested on: NCI-H23
SR = tested on: SR
COLO 205 = tested on: COLO 205
HT-29 = tested on: HT-29
HCT-15 = tested on: HCT-15
TK-10 = tested on: TK-10
OVCAR-3 = tested on: OVCAR-3
MOLT-4 = tested on: MOLT-4
BT-549 = tested on: BT-549
SK-OV-3 = tested on: SK-OV-3
ACHN = tested on: ACHN
U-251 = tested on: U-251
M14 = tested on: M14
HCT-116 = tested on: HCT-116
RXF 393 = tested on: RXF 393
HL-60 = tested on: HL-60
SK-MEL-5 = tested on: SK-MEL-5
UO-31 = tested on: UO-31

SMILES	GI50 (SF-295)	GI50 (NCI-H23)	GI50 (SR)	GI50 (COLO 205)	GI50 (HT-29)	GI50 (HCT-15) [µM]	GI50 (TK-10)	GI50 (OVCAR-3)	GI50 (MOLT-4)	GI50 (BT-549)	GI50 (SK-OV-3)	GI50 (ACHN)	GI50 (U-251)	GI50 (M14)	GI50 (HCT-116)	GI50 (RXF 393)	GI50 (HL-60)	GI50 (SK-MEL-5)	GI50 (UO-31)
C[C@H](NC(=O)CNC(=O)CCCCCC(=O)NCC(=O)N[C@@H](C)C(=O)OCc1ccccc1)C(=O)OCc1ccccc1	> 100 µM (inactive)	> 100 µM (inactive)	> 100 µM (inactive)	> 100 µM (inactive)	> 100 µM (inactive)	> 100	> 100 µM (inactive)	> 100 µM (inactive)	> 100 µM (inactive)	> 100 µM (inactive)	> 100 µM (inactive)	> 100 µM (inactive)	> 100 µM (inactive)	> 100 µM (inactive)	> 100 µM (inactive)	> 100 µM (inactive)			
CN(C)CCN(C)P12(Oc3ccccc3O1)Oc1c(Cl)c(Cl)c(Cl)c(Cl)c1O2	37.1 µM (inactive)	35.8 µM (inactive)	35.2 µM (inactive)	> 100 µM (inactive)	43.8 µM (inactive)	40	> 100 µM (inactive)	27.9 µM (inactive)	34 µM (inactive)	56.4 µM (inactive)	> 100 µM (inactive)	39.8 µM (inactive)	56.5 µM (inactive)	50.5 µM (inactive)	33.2 µM (inactive)		18.8 µM (inactive)	58.6 µM (inactive)	39.1 µM (inactive)
COc1ccc(-c2cc(-c3ccc(Nc4ccnc5cc(Cl)ccc45)cc3)nc(N)c2C#N)c2ccccc12	> 100 µM (inactive)	> 100 µM (inactive)	> 100 µM (inactive)	> 100 µM (inactive)	> 100 µM (inactive)	> 100	> 100 µM (inactive)		> 100 µM (inactive)	> 100 µM (inactive)		> 100 µM (inactive)	> 100 µM (inactive)	> 100 µM (inactive)	> 100 µM (inactive)	> 100 µM (inactive)		> 100 µM (inactive)	> 100 µM (inactive)
Cc1cc2c(c(C(=O)NCC(=O)N[C@@H](C)C(=O)OCc3ccccc3)c1)Oc1c(cc(C)cc1C(=O)NCC(=O)N[C@@H](C)C(=O)OCc1ccccc1)S2	> 100 µM (inactive)	> 100 µM (inactive)	17.8 µM (inactive)	> 100 µM (inactive)	> 100 µM (inactive)	> 100		22 µM (inactive)	78 µM (inactive)	> 100 µM (inactive)	> 100 µM (inactive)	> 100 µM (inactive)	> 100 µM (inactive)	> 100 µM (inactive)	> 100 µM (inactive)	20.1 µM (inactive)		> 100 µM (inactive)	> 100 µM (inactive)
N#CC(CC(=O)O)=C(c1ccccc1)c1ccccc1	> 100 µM (inactive)	> 100 µM (inactive)	> 100 µM (inactive)	> 100 µM (inactive)	> 100 µM (inactive)	> 100	> 100 µM (inactive)	> 100 µM (inactive)		> 100 µM (inactive)	> 100 µM (inactive)	> 100 µM (inactive)	> 100 µM (inactive)	> 100 µM (inactive)	> 100 µM (inactive)			> 100 µM (inactive)	> 100 µM (inactive)
Cc1cc(C)nc(NC(=S)Nc2ccc([N+](=O)[O-])cc2)c1		> 100 µM (inactive)	> 100 µM (inactive)	> 100 µM (inactive)	> 100 µM (inactive)	> 100	> 100 µM (inactive)		> 100 µM (inactive)	> 100 µM (inactive)		> 100 µM (inactive)	> 100 µM (inactive)		> 100 µM (inactive)	> 100 µM (inactive)	> 100 µM (inactive)	> 100 µM (inactive)	> 100 µM (inactive)
[N-]=[N+]=Nc1ccccc1-c1ccccc1[N+](=O)[O-]	73.3 µM (inactive)	35.1 µM (inactive)	28.1 µM (inactive)		44.3 µM (inactive)	42.6	39.4 µM (inactive)	39.4 µM (inactive)	22.1 µM (inactive)	32.3 µM (inactive)	> 100 µM (inactive)	> 100 µM (inactive)	42.9 µM (inactive)	50.9 µM (inactive)	43 µM (inactive)	86.1 µM (inactive)			72.8 µM (inactive)
O=S1(=O)OCc2ccccc21	> 100 µM (inactive)	> 100 µM (inactive)		> 100 µM (inactive)	> 100 µM (inactive)	59.3	> 100 µM (inactive)	32.5 µM (inactive)	15.7 µM (inactive)	> 100 µM (inactive)	> 100 µM (inactive)	61.5 µM (inactive)	> 100 µM (inactive)	> 100 µM (inactive)	37.3 µM (inactive)	> 100 µM (inactive)	59.3 µM (inactive)	> 100 µM (inactive)	> 100 µM (inactive)
